Reference: the supplement of paper PMC10307832

Legend:
Test in all cases: relative viability (nuclei count vs DMSO), 5 days (fraction); higher = more cells survive
NCI-H661 = system: NCI-H661
How it was run: (§1)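 Five library-drug doses in √10 steps were combined with a fixed anchor-drug dose, or a single drug was given alone, by pin tool to lung cancer cell lines in 1536-well plates the day after seeding. Nuclei were stained and counted after 5 days. Relative viability is the nuclei count in treated wells over that in vehicle wells, taken as the median of duplicate plates.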

LCLC-97TM1 = system: LCLC-97TM1
How it was run: as §1

NCI-H1915 = system: NCI-H1915
How it was run: as §1

NCI-H1993 = system: NCI-H1993
How it was run: as §1

PC-3 [JPC-3] = system: PC-3 [JPC-3]
How it was run: as §1

NCI-H2009 = system: NCI-H2009
How it was run: as §1

NCI-H441 = system: NCI-H441
How it was run: as §1

NCI-H1437 = system: NCI-H1437
How it was run: as §1

COR-L 105 = system: COR-L 105
How it was run: as §1

A-427 = system: A-427
How it was run: as §1

NCI-H2347 = system: NCI-H2347
How it was run: as §1

NCI-H520 = system: NCI-H520
How it was run: as §1

NCI-H2023 = system: NCI-H2023
How it was run: as §1

NCI-H838 = system: NCI-H838
How it was run: as §1

NCI-H522 = system: NCI-H522
How it was run: as §1

NCI-H2342 = system: NCI-H2342
How it was run: as §1

COR-L23 = system: COR-L23
How it was run: as §1

LXF-289 = system: LXF-289
How it was run: as §1

ABC-1 = system: ABC-1
How it was run: as §1

HOP-62 = system: HOP-62
How it was run: as §1

NCI-H460 = system: NCI-H460
How it was run: as §1

NCI-H1651 = system: NCI-H1651
How it was run: as §1

Compound `Oc1nc(-c2ccc(C(F)(F)F)cc2)nc2c1CSCC2` [XAV939] + Nc1ncn([C@H]2C[C@H](O)[C@@H](CO)O2)c(=O)n1 [Decitabine] (partner 2 µM) has a relative viability (NCI-H661; first compound 0.08 µM) of 0.542, a relative viability (NCI-H661; first compound 0.253 µM) of 0.493 and a relative viability (NCI-H661; first compound 0.8 µM) of 0.544. It also gave a relative viability (NCI-H661; first compound 2.53 µM) of 0.509, a relative viability (LCLC-97TM1; first compound 0.08 µM) of 0.211 and a relative viability (LCLC-97TM1; first compound 0.253 µM) of 0.245. For the same compound, the relative viability (LCLC-97TM1; first compound 2.53 µM) was 0.21, the relative viability (NCI-H1915; first compound 0.08 µM) was 0.253 and the relative viability (NCI-H1915; first compound 0.253 µM) was 0.25. For the same compound, the relative viability (NCI-H1915; first compound 0.8 µM) was 0.265, the relative viability (NCI-H1915; first compound 2.53 µM) was 0.268 and the relative viability (NCI-H1993; first compound 0.08 µM) was 0.527. It also gave a relative viability (NCI-H1993; first compound 0.253 µM) of 0.224, a relative viability (NCI-H1993; first compound 0.8 µM) of 0.567 and a relative viability (NCI-H1993; first compound 2.53 µM) of 0.467. For the same compound, the relative viability (PC-3 [JPC-3]; first compound 0.253 µM) was 0.724, the relative viability (PC-3 [JPC-3]; first compound 0.8 µM) was 0.837 and the relative viability (PC-3 [JPC-3]; first compound 2.53 µM) was 0.784. It also gave a relative viability (NCI-H2009; first compound 0.08 µM) of 0.515, a relative viability (NCI-H2009; first compound 0.253 µM) of 0.359 and a relative viability (NCI-H2009; first compound 0.8 µM) of 0.405. The relative viability (NCI-H2009; first compound 2.53 µM) was 0.336, the relative viability (NCI-H441; first compound 0.08 µM) was 0.25 and the relative viability (NCI-H441; first compound 0.253 µM) was 0.253. The relative viability (NCI-H441; first compound 0.8 µM) was 0.232, the relative viability (NCI-H441; first compound 2.53 µM) was 0.251 and the relative viability (NCI-H1437; first compound 0.08 µM) was 0.626. For the same compound, the relative viability (NCI-H1437; first compound 0.253 µM) was 0.478, the relative viability (NCI-H1437; first compound 0.8 µM) was 0.539 and the relative viability (NCI-H1437; first compound 2.53 µM) was 0.431. For the same compound, the relative viability (COR-L 105; first compound 0.08 µM) was 0.719, the relative viability (COR-L 105; first compound 0.253 µM) was 0.551 and the relative viability (COR-L 105; first compound 0.8 µM) was 0.587. It also gave a relative viability (COR-L 105; first compound 2.53 µM) of 0.563, a relative viability (A-427; first compound 0.08 µM) of 0.627 and a relative viability (A-427; first compound 0.253 µM) of 0.606. It also gave a relative viability (A-427; first compound 0.8 µM) of 0.527, a relative viability (A-427; first compound 2.53 µM) of 0.518 and a relative viability (NCI-H2347; first compound 0.08 µM) of 0.62. For the same compound, the relative viability (NCI-H2347; first compound 0.253 µM) was 0.586, the relative viability (NCI-H2347; first compound 0.8 µM) was 0.607 and the relative viability (NCI-H2347; first compound 2.53 µM) was 0.517. For the same compound, the relative viability (NCI-H520; first compound 0.08 µM) was 0.54, the relative viability (NCI-H520; first compound 0.8 µM) was 0.457 and the relative viability (NCI-H520; first compound 2.53 µM) was 0.495. It also gave a relative viability (NCI-H2023; first compound 0.08 µM) of 0.207, a relative viability (NCI-H2023; first compound 0.253 µM) of 0.232 and a relative viability (NCI-H2023; first compound 0.8 µM) of 0.212. For the same compound, the relative viability (NCI-H2023; first compound 2.53 µM) was 0.228, the relative viability (NCI-H838; first compound 0.08 µM) was 0.488 and the relative viability (NCI-H838; first compound 0.253 µM) was 0.442. For the same compound, the relative viability (NCI-H838; first compound 0.8 µM) was 0.458, the relative viability (NCI-H838; first compound 2.53 µM) was 0.384 and the relative viability (NCI-H522; first compound 0.08 µM) was 0.629. For the same compound, the relative viability (NCI-H522; first compound 0.253 µM) was 0.576, the relative viability (NCI-H522; first compound 0.8 µM) was 0.723 and the relative viability (NCI-H522; first compound 2.53 µM) was 0.607. The relative viability (NCI-H2342; first compound 0.08 µM) was 0.832, the relative viability (NCI-H2342; first compound 0.253 µM) was 0.669 and the relative viability (NCI-H2342; first compound 0.8 µM) was 0.72. It also gave a relative viability (NCI-H2342; first compound 2.53 µM) of 0.427, a relative viability (COR-L23; first compound 0.08 µM) of 0.444 and a relative viability (COR-L23; first compound 0.253 µM) of 0.414. For the same compound, the relative viability (COR-L23; first compound 0.8 µM) was 0.424, the relative viability (COR-L23; first compound 2.53 µM) was 0.378 and the relative viability (LXF-289; first compound 0.08 µM) was 0.388. It also gave a relative viability (LXF-289; first compound 0.253 µM) of 0.38, a relative viability (LXF-289; first compound 0.8 µM) of 0.416 and a relative viability (LXF-289; first compound 2.53 µM) of 0.345. The relative viability (ABC-1; first compound 0.253 µM) was 1.27, the relative viability (ABC-1; first compound 0.8 µM) was 0.975 and the relative viability (ABC-1; first compound 2.53 µM) was 0.655. The relative viability (HOP-62; first compound 0.08 µM) was 0.226, the relative viability (HOP-62; first compound 0.253 µM) was 0.193 and the relative viability (HOP-62; first compound 0.8 µM) was 0.223. The relative viability (HOP-62; first compound 2.53 µM) was 0.157, the relative viability (NCI-H460; first compound 0.08 µM) was 0.599 and the relative viability (NCI-H460; first compound 0.253 µM) was 0.443. The relative viability (NCI-H460; first compound 0.8 µM) was 0.501, the relative viability (NCI-H460; first compound 2.53 µM) was 0.458 and the relative viability (NCI-H1651; first compound 0.08 µM) was 0.606. The relative viability (NCI-H1651; first compound 0.253 µM) was 0.399, the relative viability (NCI-H1651; first compound 0.8 µM) was 0.625 and the relative viability (NCI-H1651; first compound 2.53 µM) was 0.426.
